The values below come from patent US6403299B1, “DEAH-box proteins” (Aventis Research & Technologies GmbH & Co. KG, priority 1995, dated 2002).

Like-named read-outs stand apart in the source and are kept apart here.

What all share (format): cell-based, mouse
For test [1], the system named is A20.2J cells. Briefly: Proliferation test 1 (cell counting, Eosin staining), A20.2J cells. On the procedure: A20.2J is a subline of the mouse B-cell lymphoma A20 (ATCC TIB-208) and described as a fusion line in the ATCC for the cell line LS 102.9 (ATCC HB-97). […] The cells were easy to culture as a nonadherent-growing cell line. 5×10^5 cells were incubated in 5 ml of Iscove medium in 6-well plates (Greiner) for 48 hours at 37° C. and 10% CO2. One well was set up as a positive reference value: for A20.2J: cells in Iscove medium Test substances in various concentrations were pipetted into the cells in the remaining wells. After the incubation time, the cells were resuspended in the well, and 100 μl of cell suspension were taken and diluted in 1% strength Eosin solution (1 g of Eosin yellowish from Riedel de Häen dissolved in 100 ml of sterile isotonic saline solution). The cells were counted in a Neubauer counting chamber and the fraction of dead cells (stained by Eosin) determined. The substance-induced alteration of proliferation was calculated relative to the respective positive control.

For test [2], the system named is A20R cells. Briefly: Proliferation test 1 (cell counting, Eosin staining), A20R cells. On the procedure: Every 2nd or 3rd day, the cells were passaged in fresh medium to which the same concentration of A77 1726 was added. After culturing for 5 days, growth of the cells and a low dying-off rate (maximum 30% dead cells) was detectable, so the concentration of A77 1726 was increased stepwise. If the proliferation of the cells stagnated, the concentration of the last passage was used. […] 5×10^5 cells were incubated in 5 ml of Iscove medium in 6-well plates (Greiner) for 48 hours at 37° C. and 10% CO2. One well was set up as a positive reference value: for […]: cells in Iscove medium+100 μM A77 1726 Test substances in various concentrations were pipetted into the cells in the remaining wells. After the incubation time, the cells were resuspended in the well, and 100 μl of cell suspension were taken and diluted in 1% strength Eosin solution (1 g of Eosin yellowish from Riedel de Häen dissolved in 100 ml of sterile isotonic saline solution). The cells were counted in a Neubauer counting chamber and the fraction of dead cells (stained by Eosin) determined. The substance-induced alteration of proliferation was calculated relative to the respective positive control.

The test system of test [3] is A20.2J cells. Nature of the test: Proliferation test 2 (3H-thymidine incorporation), A20.2J cells. As to the method:
(§1) 4×10^3 cells were pipetted into a volume of 100 μl of Iscove medium in 96-well round-bottom microtiter plates (Nunc). Test substances were applied in twice the concentration starting from the desired test concentration and 100 μl of this solution was pipetted into the cells. The plates were incubated for 48 hours at 37° C. and 10% CO2. The proliferation was determined by radiolabeling the DNA of dividing cells. To do this, after the incubation time 25 μl of ^3H-thymidine (10 μCi/ml; specific activity 29 Ci/mmol; Amersham) was added to each well and the mixture was incubated for a further 16 hours. To evaluate the test, the plates were harvested on glass fiber filters (Pharmacia) by means of a cell harvester (Skatron), unincorporated ^3H-thymidine being collected in separate waste flasks, and only cellular, DNA-bound radioactivity being measured. The filters were heat-sealed in plastic bags and after addition of 10 ml of scintillator (Pharmacia) sealed in counting cassettes for measurement. Measurement was carried out in a beta-counter (beta-plate system 1206 from Wallac). As indicated under Test 1, the alteration in proliferation of the test substances was calculated against the respective positive controls.
(§2) Antiproliferative substances known from the literature were tested at different concentrations (as described in proliferation test 2) for their antiproliferative properties on A20R cells and A20.2J.
(§3) The function of MDR proteins as secretory pumps can be inhibited by calcium channel blockers, which leads to an accumulation of the substance in the cell. Calcium channel blockers known from the literature and also MDR-associated substances were therefore added to both cell lines in order to check whether the resistant line overexpressed MDR proteins.
(§4) The same test mixture was chosen in order to check whether A77 1726 is an MDR-transported molecule. Numbers are % inhibition of proliferation.
Background: Dividing cells build labelled thymidine or BrdU into new DNA.

Test [4] relates to A20R cells. Nature of the test: Proliferation test 2 (3H-thymidine incorporation), A20R cells. As to the method: as §1, §2, §3, §4

For `C/C(O)=C(\C#N)C(=O)Nc1ccc(C(F)(F)F)cc1` [A77 1726], the IC50 in the test on A20.2J cells [1] (Mus musculus, A20/2J, proliferation test 1, A77 1726 analogs, read-out: IC50 value of A20.2J) is 2 to 3 µM; in the test with A20.2J cells [1] (Mus musculus, read-out: 50% inhibition of the proliferation of the cells, A20.2J) it was 2 µM; in the test with A20R cells [2] (Mus musculus, proliferation test 1, A77 1726 analogs), 130 µM. Besides, the “% inhibition of proliferation” value with A20.2J cells [3] (A20.2J + 1.6 μM A77 1726, verapamil 0 nM) stood at 16.4%; in the test on A20R cells [4] (A20R + 62.5 μM A77 1726, verapamil 0 nM), 10.3%. Further, the “transport by MDR proteins” value with A20R cells [4] (A20.2J and A20R cells, with verapamil 0-400 nM) was “not transported by MDR proteins”.

Consider `Cc1c(-c2ccc(-c3ccccc3F)cc2)nc2ccc(F)cc2c1C(=O)[O-].[Na+]` [Brequinar Na^+ salt, brequinar], for which the IC50 in the test on A20.2J cells [1] (proliferation test 1, brequinar, read-out: IC50 value of A20.2J) was 0.2 µM; in the test on A20R cells [2] (proliferation test 1, brequinar), 50 to 75 µM. For the same compound, the “cross-resistance of A20R cells (growth behavior) compared with A20.2J” value with A20R cells [2] is on record as “cross-resistance”.

With `N.N.[Cl][Pt][Cl]` [Cisplatin], the “% inhibition of A20.2J” value in the test with A20.2J cells [3] (10 μM) came to 44.7%. Further, the “% inhibition of A20R” value with A20R cells [4] (10 μM) is 91.1%.

On to `CN(Cc1cnc2nc(N)nc(N)c2n1)c1ccc(C(=O)N[C@@H](CCC(=O)O)C(=O)O)cc1` [Methotrexate], for which the inhibition at 0.15 µM in the test on A20.2J cells [3] (Mus musculus, A20/2J; 0.15 μM) was determined as 75.9%; in the test with A20R cells [4] (Mus musculus; 0.15 μM), 65.2%.

On to `COc1c(C)c2c(c(O)c1C/C=C(\C)CCC(=O)O)C(=O)OC2` [Mycophenolic acid], for which the inhibition at 0.15 µM in the test on A20.2J cells [3] (Mus musculus, A20/2J; 0.15 μM) is 89.8%; in the test with A20R cells [4] (Mus musculus; 0.15 μM) it was 76.8%.

Take `COc1cccc2c1C(=O)c1c(O)c3c(c(O)c1C2=O)C[C@@](O)(C(C)=O)C[C@@H]3O[C@H]1C[C@H](N)[C@H](O)[C@H](C)O1` [daunorubicin]: the inhibition at 0.3 µM in the test on A20.2J cells [3] (Mus musculus, A20/2J, read-out: % inhibition of proliferation) was found to be 10.7%; in the test on A20R cells [4] (Mus musculus, read-out: % inhibition of proliferation), 6.8%.

Consider `COc1cccc2c1C(=O)c1c(O)c3c(c(O)c1C2=O)C[C@@](O)(C(=O)CO)C[C@@H]3O[C@H]1C[C@H](N)[C@H](O)[C@H](C)O1` [doxorubicin], for which the inhibition at 0.3 µM in the test on A20.2J cells [3] (Mus musculus, A20/2J; read-out: % inhibition of proliferation) is 2.7%; in the test on A20R cells [4] (Mus musculus; read-out: % inhibition of proliferation) it was 9.1%.

Regarding `Cc1oncc1C(=O)Nc1ccc(C(F)(F)F)cc1` [leflunomide], the ED50 worked out at 4 μ with A20.2J cells [1] (murine A20.2J cells) and 130 μ with A20R cells [2] (murine A20.2J cells resistant to high levels of leflunomide). The EC50 came to 4 µM with A20.2J cells [1] (original cell line A20.2J, read-out: ED50 (the source's name)) and 130 µM in the test with A20R cells [2] (resistant subline A20R, read-out: ED50 (the source's name)). Moreover, in the test on A20R cells [2] (A20R versus A20.2J), the “times higher leflunomide concentrations tolerated by A20R than by A20.2J” value is 30-40 times.

For Cyclosporin A, in the test on A20.2J cells [3] (0.25 μM), the “% inhibition of A20.2J” value is 69.9%. Further, the “% inhibition of A20R” value in the test on A20R cells [4] (0.25 μM) was determined as 77.5%.
